Here are results for 3 compounds from US20020106707A1, “Compositions and methods for detecting and quantifying COX-2 activity and anandamide metabolites” (priority 2000, published 2002).

Where two headings read alike, the source gives them in different places.

The conditions of data set [1]: rat.
In a further data set the target is T1, COX-2 (Mus musculus, UniProt Q05769).
T1 sequence (Q05769 18-604): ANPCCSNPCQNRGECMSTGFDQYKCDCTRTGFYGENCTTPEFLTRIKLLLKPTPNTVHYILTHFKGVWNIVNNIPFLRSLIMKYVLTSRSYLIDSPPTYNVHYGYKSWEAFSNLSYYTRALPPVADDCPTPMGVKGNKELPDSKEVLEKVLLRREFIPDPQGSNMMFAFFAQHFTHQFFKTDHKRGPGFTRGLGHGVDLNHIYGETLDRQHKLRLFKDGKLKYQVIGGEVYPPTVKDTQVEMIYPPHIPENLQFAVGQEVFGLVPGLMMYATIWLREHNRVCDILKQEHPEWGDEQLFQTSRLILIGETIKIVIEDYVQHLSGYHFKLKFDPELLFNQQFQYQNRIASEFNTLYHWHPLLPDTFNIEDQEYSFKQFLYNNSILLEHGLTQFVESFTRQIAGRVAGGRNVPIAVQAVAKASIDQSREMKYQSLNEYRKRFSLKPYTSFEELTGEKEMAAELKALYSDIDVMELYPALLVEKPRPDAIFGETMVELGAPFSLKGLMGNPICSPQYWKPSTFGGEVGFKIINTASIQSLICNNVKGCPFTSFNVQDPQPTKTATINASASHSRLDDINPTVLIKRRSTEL
The settings on record: 3 μM inhibitor; RAW264.7 cells activated with LPS (1 μg/mL) and IFN-γ (10 units/mL), AEA 20 μM.

Regarding `CCCCC[C@H](O)/C=C/[C@H]1[C@H](O)CC(=O)[C@@H]1C/C=C\CCCC(=O)NCCO` [PGE2-EA, prostaglandin E2 ethanolamide], the “apparent volume of distribution” value in data set [1] (2 mg/kg PGE2-EA IV) was in the range of 300 to 400 mL. In data set [1] (2 mg/kg PGE2-EA IV, 2 hours post-dosing), the “detection at 2 hours post-dosing” value was “routinely detected”. In data set [1] (2 mg/kg PGE2-EA IV, n=3), the calculated plasma half-life is 6.33 ± 0.833 min.

For the compound `CCCCCC(=O)CCC1C(O)CC(=O)C1C/C=C\CCCC(=O)NCCO` (centres unmarked) [13,14-dihydro-15-keto-PGE2-EA], the “detection at 2 hours post-dosing” value in data set [1] (in vivo, iv, 2 mg/kg) is given as “routinely detected”.

In the case of `COc1ccc2c(c1)c(CC(=O)NCCc1ccccc1)c(C)n2C(=O)c1ccc(Cl)cc1` [indomethacin phenethylamide, 2-[1-(4-chlorobenzoyl)-5-methoxy-2-methyl-1H-indol-3-yl]-N-phenethylacetamide], the PGD2-EA biosynthesis result on COX-2 is on record as “inhibited”.
